According to ChEMBL document CHEMBL1201862, “PubChem BioAssay data set” (2004):
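Exposure lasted 48 hours, with cells grown in 96-well plates and compounds tested at five concentrations. The concentration for 50% growth inhibition is given as GI50.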 Activity calls are given as the source filed them. Rule as the data show it: active = GI50 up to about 1.1 µM and inactive = higher.

Tests used:
Test in all cases: growth of human tumour cells (NCI), 48 h
SNB-78 = test system: SNB-78
CCRF-CEM = test system: CCRF-CEM
SNB-19 = test system: SNB-19
SK-MEL-2 = test system: SK-MEL-2
RXF 393 = test system: RXF 393
M14 = test system: M14
DLD-1 = test system: DLD-1
OVCAR-5 = test system: OVCAR-5
HCC 2998 = test system: HCC 2998
Malme-3M = test system: Malme-3M
COLO 205 = test system: COLO 205
NCI-H522 = test system: NCI-H522
SF-268 = test system: SF-268
DMS-273 = test system: DMS-273
SW-620 = test system: SW-620
A549 = test system: A549
HT-29 = test system: HT-29
SK-MEL-5 = test system: SK-MEL-5
OVCAR-4 = test system: OVCAR-4
SF-539 = test system: SF-539
XF498 = test system: XF498
HCT-15 = test system: HCT-15
K562 = test system: K562
OVCAR-8 = test system: OVCAR-8
SR = test system: SR
KM12 = test system: KM12
TK-10 = test system: TK-10
UO-31 = test system: UO-31
LXFL 529 = test system: LXFL 529
KM-20L2 = test system: KM-20L2
UACC-257 = test system: UACC-257
HOP-18 = test system: HOP-18
NCI-H460 = test system: NCI-H460
EKVX = test system: EKVX
786-0 = test system: 786-0
A498 = test system: A498
SK-MEL-28 = test system: SK-MEL-28
NCI-H23 = test system: NCI-H23
RPMI-8226 = test system: RPMI-8226
NCI-H226 = test system: NCI-H226
ACHN = test system: ACHN
HCT-116 = test system: HCT-116
UACC-62 = test system: UACC-62
CAKI-1 = test system: CAKI-1
HL-60 = test system: HL-60
U-251 = test system: U-251
RXF 631 = test system: RXF 631
HOP-92 = test system: HOP-92
DMS-114 = test system: DMS-114
IGROV-1 = test system: IGROV-1
HOP-62 = test system: HOP-62
SK-OV-3 = test system: SK-OV-3
MOLT-4 = test system: MOLT-4
SF-295 = test system: SF-295
LOX IMVI = test system: LOX IMVI
SN12C = test system: SN12C
OVCAR-3 = test system: OVCAR-3
SNB-75 = test system: SNB-75
M19-MEL = test system: M19-MEL

COC(=O)C(=O)C(C(=O)C(=O)Nc1cccc(C(C)=O)c1)c1nc2ccc([N+](=O)[O-])cc2nc1O (stereo not drawn) was tested, and the GI50 (SNB-78) was > 100 µM (inactive), the GI50 (CCRF-CEM) was > 100 µM (inactive) and the GI50 (SNB-19) was > 100 µM (inactive). For the same molecule, the GI50 (SK-MEL-2) was > 100 µM (inactive), the GI50 (RXF 393) was > 100 µM (inactive) and the GI50 (M14) was > 100 µM (inactive). For the same molecule, the GI50 (DLD-1) was > 100 µM (inactive), the GI50 (OVCAR-5) was > 100 µM (inactive) and the GI50 (HCC 2998) was > 100 µM (inactive). For the same molecule, the GI50 (Malme-3M) was > 100 µM (inactive), the GI50 (COLO 205) was > 100 µM (inactive) and the GI50 (NCI-H522) was > 100 µM (inactive). For the same molecule, the GI50 (SF-268) was > 100 µM (inactive), the GI50 (DMS-273) was > 100 µM (inactive) and the GI50 (SW-620) was > 100 µM (inactive). The GI50 (A549) was > 100 µM (inactive), the GI50 (HT-29) was > 100 µM (inactive) and the GI50 (SK-MEL-5) was > 100 µM (inactive). The GI50 (OVCAR-4) was > 100 µM (inactive), the GI50 (SF-539) was > 100 µM (inactive) and the GI50 (XF498) was > 100 µM (inactive). For the same molecule, the GI50 (HCT-15) was > 100 µM, the GI50 (K562) was > 100 µM (inactive) and the GI50 (OVCAR-8) was > 100 µM (inactive). For the same molecule, the GI50 (SR) was > 100 µM (inactive), the GI50 (KM12) was > 100 µM (inactive) and the GI50 (TK-10) was > 100 µM (inactive). For the same molecule, the GI50 (UO-31) was > 100 µM (inactive), the GI50 (LXFL 529) was > 100 µM (inactive) and the GI50 (KM-20L2) was > 100 µM (inactive). For the same molecule, the GI50 (UACC-257) was > 100 µM (inactive), the GI50 (HOP-18) was > 100 µM (inactive) and the GI50 (NCI-H460) was > 100 µM (inactive). For the same molecule, the GI50 (EKVX) was > 100 µM (inactive), the GI50 (786-0) was > 100 µM (inactive) and the GI50 (A498) was > 100 µM (inactive). For the same molecule, the GI50 (SK-MEL-28) was > 100 µM (inactive), the GI50 (NCI-H23) was > 100 µM (inactive) and the GI50 (RPMI-8226) was > 100 µM (inactive). The GI50 (NCI-H226) was > 100 µM (inactive), the GI50 (ACHN) was > 100 µM (inactive) and the GI50 (HCT-116) was > 100 µM (inactive). The GI50 (UACC-62) was > 100 µM (inactive), the GI50 (CAKI-1) was > 100 µM (inactive) and the GI50 (HL-60) was 80 µM (inactive). The GI50 (U-251) was > 100 µM (inactive), the GI50 (RXF 631) was > 100 µM (inactive) and the GI50 (HOP-92) was > 100 µM (inactive). For the same molecule, the GI50 (DMS-114) was > 100 µM (inactive), the GI50 (IGROV-1) was > 100 µM (inactive) and the GI50 (HOP-62) was > 100 µM (inactive). For the same molecule, the GI50 (SK-OV-3) was > 100 µM (inactive), the GI50 (MOLT-4) was > 100 µM (inactive) and the GI50 (SF-295) was > 100 µM (inactive). For the same molecule, the GI50 (LOX IMVI) was > 100 µM (inactive) and the GI50 (SN12C) was > 100 µM (inactive).

In the case of C[C@]12CCc3nonc3C1CC[C@@H]1C2CC[C@@]2(C)C1CC[C@@H]2O (stereo partly drawn), the GI50 (SNB-78) is reported as > 100 µM (inactive), the GI50 (CCRF-CEM) is reported as > 100 µM (inactive) and the GI50 (SNB-19) is reported as > 100 µM (inactive). The GI50 (SK-MEL-2) was > 100 µM (inactive), the GI50 (RXF 393) was > 100 µM (inactive) and the GI50 (M14) was > 100 µM (inactive). For the same molecule, the GI50 (DLD-1) was > 100 µM (inactive), the GI50 (OVCAR-3) was > 100 µM (inactive) and the GI50 (OVCAR-5) was > 100 µM (inactive). For the same molecule, the GI50 (HCC 2998) was > 100 µM (inactive), the GI50 (Malme-3M) was > 100 µM (inactive) and the GI50 (COLO 205) was > 100 µM (inactive). The GI50 (NCI-H522) was > 100 µM (inactive), the GI50 (SF-268) was > 100 µM (inactive) and the GI50 (DMS-273) was > 100 µM (inactive). The GI50 (SW-620) was > 100 µM (inactive), the GI50 (A549) was > 100 µM (inactive) and the GI50 (HT-29) was > 100 µM (inactive). The GI50 (SK-MEL-5) was > 100 µM (inactive), the GI50 (OVCAR-4) was > 100 µM (inactive) and the GI50 (SF-539) was > 100 µM (inactive). For the same molecule, the GI50 (XF498) was > 100 µM (inactive), the GI50 (HCT-15) was > 100 µM and the GI50 (K562) was > 100 µM (inactive). For the same molecule, the GI50 (OVCAR-8) was > 100 µM (inactive), the GI50 (KM12) was > 100 µM (inactive) and the GI50 (TK-10) was > 100 µM (inactive). For the same molecule, the GI50 (UO-31) was > 100 µM (inactive), the GI50 (LXFL 529) was > 100 µM (inactive) and the GI50 (KM-20L2) was > 100 µM (inactive). The GI50 (UACC-257) was > 100 µM (inactive), the GI50 (HOP-18) was > 100 µM (inactive) and the GI50 (NCI-H460) was > 100 µM (inactive). The GI50 (EKVX) was > 100 µM (inactive), the GI50 (786-0) was > 100 µM (inactive) and the GI50 (A498) was > 100 µM (inactive). For the same molecule, the GI50 (SK-MEL-28) was > 100 µM (inactive), the GI50 (NCI-H23) was > 100 µM (inactive) and the GI50 (RPMI-8226) was > 100 µM (inactive). The GI50 (NCI-H226) was > 100 µM (inactive), the GI50 (ACHN) was > 100 µM (inactive) and the GI50 (UACC-62) was > 100 µM (inactive). The GI50 (CAKI-1) was > 100 µM (inactive), the GI50 (HL-60) was > 100 µM (inactive) and the GI50 (U-251) was > 100 µM (inactive). The GI50 (RXF 631) was > 100 µM (inactive), the GI50 (HOP-92) was 94.4 µM (inactive) and the GI50 (SNB-75) was 86.7 µM (inactive). The GI50 (DMS-114) was > 100 µM (inactive), the GI50 (IGROV-1) was > 100 µM (inactive) and the GI50 (M19-MEL) was > 100 µM (inactive). The GI50 (HOP-62) was > 100 µM (inactive), the GI50 (SK-OV-3) was > 100 µM (inactive) and the GI50 (MOLT-4) was > 100 µM (inactive). The GI50 (SF-295) was > 100 µM (inactive), the GI50 (LOX IMVI) was > 100 µM (inactive) and the GI50 (SN12C) was > 100 µM (inactive).
